Data on five compounds can be found in article PMC12007285 (Microbial Cell Factories, 2025).

The test system of test [1] is RsNpcB (reductase component of two-component p-nitrophenol monooxygenase RsNcpAB). Nature of the test: NADH/NADPH oxidation at […] nm. In kind it is biochemical, Rhodococcus sp. 21391. To be noted: 50 mM Tris–HCl pH 7.5, 25 °C.
Test [2] deals with p-nitrophenol monooxygenase oxidizing component RsNpcA (Rhodococcus sp. 21391) (UniProt Q6F4M8). Description: SEC. A general note: In gel filtration, larger molecules generally elute earlier.

Turning to `Cc1cc2nc3c(=O)[nH]c(=O)nc-3n(C[C@H](O)[C@H](O)[C@H](O)COP(=O)(O)OP(=O)(O)OC[C@H]3O[C@@H](n4cnc5c(N)ncnc54)[C@H](O)[C@@H]3O)c2cc1C` [FAD], in test [1] (200 μM NADH, FAD varied 0.2–1.0 μM), the Michaelis-Menten constant (Km) (in general, the substrate concentration at which the rate is half of its maximum) was 0.11 ± 0.02 µM.

As for `Cc1cc2nc3c(=O)[nH]c(=O)nc-3n(C[C@H](O)[C@H](O)[C@H](O)COP(=O)(O)O)c2cc1C` [FMN], the Km in test [1] (200 μM NADH, FMN varied 0.2–1.0 μM) is 0.02 ± 0.007 µM.

Regarding `NC(=O)C1=CN([C@@H]2O[C@H](COP(=O)(O)OP(=O)(O)OC[C@H]3O[C@@H](n4cnc5c(N)ncnc54)[C@H](O)[C@@H]3O)[C@@H](O)[C@H]2O)C=CC1` [NADH], the Michaelis-Menten constant (Km) in test [1] (20 μM FAD, NADH varied 20–220 μM) was 45.5 ± 10.8 µM.

Turning to `NC(=O)C1=CN([C@@H]2O[C@H](COP(=O)(O)OP(=O)(O)OC[C@H]3O[C@@H](n4cnc5c(N)ncnc54)[C@H](OP(=O)(O)O)[C@@H]3O)[C@@H](O)[C@H]2O)C=CC1` [NADPH], the Km in test [1] (20 μM FAD, NADPH varied 20–220 μM) turned out to be 16.4 ± 4.62 µM.

Turning to “p-nitrophenol monooxygenase oxidizing component RsNpcA (from UniProt Q6F4M8 1-528) (enzyme)”, the stoichiometry N (usually a count of units in the complex or per binding partner) in test [2] was determined as 4.
